We go through one compound from patent publication US20220193209A1, “COMPOSITIONS AND METHODS FOR REACTIVATING LATENT IMMUNODEFICIENCY VIRUS AND/OR TREATING IMMUNODEFICIENCY VIRUS INFECTION” (The J. David Gladstone institutes, a testamentary trust …, priority 2019, published 2022).

Data set [1] concerns latent HIV-1 provirus in J-Lat cells. Description: HIV-GFP reactivation in J-Lat cell lines (RT-qPCR, FACS). The class given is cell-based. How it is done:
Total RNA from samples was extracted using the Direct-zol RNA kit (R2060; Zymogen). cDNA was generated using 500 ng for CD4^+ T cells or 1000 ng of total RNA for J-Lats with Superscript III Reverse transcription (18080-044; ThermoFisher) and oligo(dT) (18418-012; ThermoFisher). Quantitative RT-PCR was carried out using Maxima SYBR Green qPCR Master Mix (Thermo Scientific) on SDS 2.4 software (Applied Biosystems) in a total volume of 12 μL. The SYBR green qPCR reactions contained 5 μl of 2× Maxima SYBR green/Rox qPCR Master Mix (K0221; ThermoFisher), 5 μl of diluted cDNA, and 1 nmol of both forward and reverse primers. The reactions were run using the following conditions: 50° C. for 2 min and 95° C. for 10 min, followed by 40 cycles of 95° C. for 5 s and 62° C. for 30 s. See Table 1 below for a qRT-PCR primer list. […] Dissociation curve analysis was performed after the end of the PCR to confirm the presence of a single and specific product. All qPCRs were independently repeated at least three times, averaged and compared using standard deviation (±SD).
The J-Lat clonal cell lines are Jurkat cells that contain a stably integrated, latent HIV-1 (HXB) Δenv provirus with a GFP reporter gene in place of the nef gene (Jordan, A. et al. EMBO J. 22, 1868-1877 (2003)). In this system, reactivation from established latency can be monitored through GFP expression.
HIV-GFP mRNA reactivation was assessed by RT-qPCR and normalized to RPL13A mRNA. Data represent average SD of three independent experiments. p-value relative to the control at each time point. FIG. 3, Panel B, depicts cell viability assessed by flow cytometry at 72 h of the same experiment as in A. Cell viability was measured by gating on both the live population at the forward scatter (FSC) and side scatter (SSC) plot and then the viable cells after staining with the viability dye. […] HIV-GFP reactivation (bars) and cell viability (dots) were analyzed by FACS. HIV-GFP reactivation is reported as a percentage of GFP-expressing cells (% GFP+ cells). Data represent average f SD of at least three independent experiments. FIG. 3, Panel D, depicts the same experiments as in FIG. 3, Panel C, but performed in different J-Lat cell lines 5A8, 6.3, 11.1 and 15.4. Data represent average f SD of at least three independent experiments. 10 ng/mL TNFα was used as control. […] Calculation of synergy for drug combinations using the Bliss independence model applied to the HIV-GFP reactivation measured as a percentage of GFP-expressing cells (% GFP+ cells).
Chromatin was prepared from J-Lat A2 and 5A8 cells, in which the LTR was stimulated by 1000 nM AS1842856 treatment, TNFα or which were left untreated/DMSO. […] HIV-GFP reactivation was analyzed by FACS and relativized to the control condition. […] Data represent average SD of 3-6 independent experiments. […] HIV-GFP reactivation was analyzed by FACS. […] HIV-GFP reactivation and cell viability were analyzed by FACS. Data were mean±SD of three independent experiments.
A general note: Real-time PCR tracks product formation cycle by cycle.

Data set [2] concerns latent HIV in CD4+ T cells from HIV-infected patients. Description: Cell-associated HIV RNA by ddPCR in CD4+ T cells of HIV-infected patients on antiretroviral therapy, ex vivo. It counts as cell-based. Conditions: 100 and 1000 nM, 3 days, five patients.
Description: Cells were treated ex vivo with two concentrations of AS1842856 (100 and 1000 nM), prostratin (250 nM) or combinations thereof for 3 days, and HIV RNA induction was measured by digital droplet PCR (ddPCR).
The next data set concerns ATF4. As to the kind of experiment: Western blot of ATF4 protein in CD4+ T cells. It counts as cell-based, human. The settings on record: multiple donors. Here is the method:
Cells were lysed in radioimmunoprecipitation assay buffer (50 mM Tris-HCl, pH 8, 150 mM NaCl, 1% NP-40, 0.5% sodium deoxycholate, and 0.1% SDS, supplemented with protease inhibitor cocktail; Sigma-Aldrich) for 30 min at 4° C. Samples were resuspended in Laemmli buffer for SDS-PAGE. For chemiluminescent detection, enhanced luminol-based chemiluminescent substrate (ECL) and ECL Hyperfilm (Amersham) were used.
The RNA-Seq results were validated by measuring read counts of the selected genes representative of different pathways (FIG. 8, Panel D) as well as by Real-Time Quantitative PCR (RT-qPCR) (FIG. 7, Panel C). […] Upstream regulator analysis identified TRIB3 and ATF4 as the top regulators of AS1842856-induced gene changes (FIG. 7, Panel D).
FIG. 7, Panels A-E, depict marked upregulation of the regulator ATF4 in response to FOXO1 inhibition in primary CD4^+ T cells. FIG. 7, Panel A depicts a volcano plot from the RNA-Seq data comparing CD4^+ T cells treated with 1000 nM AS1842856 versus DMSO control for 48 h. […] FIG. 7, Panel D, depicts analysis of the five top upstream regulators and table with their activation z-scores according to the RNA-Seq data. FIG. 7, Panel E depicts a representative blot of protein expression of dysregulated genes of interest (left) and densitometry analysis (right) was performed from three individual donors.
(In general: Immunoblotting shows a protein as a band on a membrane.)

Description for primary CD4+ T cells: Cell viability was measured with CellTiter-Blue Cell Viability Assay (Promega).
Histogram plot of percent live cells for each drug treatment relative to the control are shown (right side —right panel). Data are represented by mean±SD of four different donors.

For the compound `CCn1cc(C(=O)O)c(=O)c2c(N)c(F)c(NC3CCCCC3)cc21` [AS1842856, 5-amino-7-(cyclohexylamino)-1-ethyl-6-fluoro-4-oxo-1,4-dihydro-quinoline-3-carboxylic acid], the “HIV-driven GFP expression (flow cytometry)” value in data set [1] (J-Lat A2 cells (contain Tat)) and in data set [1] (J-Lat A72 cells (no Tat)) was “increased GFP expression” in each case. Further, in data set [1] (four J-Lat clonal cell lines, 72 hours), the “HIV reactivation (percentage of GFP+ cells, median fluorescence intensity)” value is recorded as “reactivated HIV in each cell line”. For the same compound, the “HIV RNA induction” value in data set [2] is given as “two-fold”. In addition, the ATF4 protein levels entry in the data set on ATF4 is on record as “increased expression”. Further, the “primary T-cell viability” value with primary CD4+ T cells is “No changes”.
